In ChEMBL document CHEMBL1201861, “Genomics of Drug Sensitity in Cancer screening data, Wellcome Trust Sanger Institute”:

Assays:
NCI-H1437 = assay: cells; format: functional, cell-based, Homo sapiens; details: Homo sapiens, NCI-H1437;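 note: growth inhibition of human NCI-H1437 cells, read out by a cell viability assay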
Description: SANGER: Inhibition of human NCI-H1437 cell growth in a cell viability assay.

LAN-6 = assay: cells; format: functional, cell-based, Homo sapiens; details: Homo sapiens, LAN-6;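 note: growth inhibition of LAN-6 cells, determined with a cell viability assay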
Description: SANGER: Inhibition of human LAN-6 cell growth in a cell viability assay.

SCC-9 = assay: cells; format: functional, cell-based, Homo sapiens; details: Homo sapiens, SCC-9;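 note: Read-out is a cell viability assay, with values giving inhibition of cell growth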
Description: SANGER: Inhibition of human SCC-9 cell growth in a cell viability assay.

COR-L105 = assay: cells; format: functional, cell-based, Homo sapiens; details: Homo sapiens, COR-L105
Description: SANGER: Inhibition of human COR-L105 cell growth in a cell viability assay.

Panc1005 = assay: cells; format: functional, cell-based, Homo sapiens; details: Homo sapiens, Panc1005;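 note: growth inhibition of human PANC-10-05 cells, measured by a cell viability assay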
Description: SANGER: Inhibition of human PANC-10-05 cell growth in a cell viability assay.

COLO-741 = assay: cells; format: functional, cell-based, Homo sapiens; details: Homo sapiens, COLO-741
Description: SANGER: Inhibition of human COLO-741 cell growth in a cell viability assay.

LB1047-RCC = assay: cells; format: functional, cell-based, Homo sapiens; details: Homo sapiens, LB1047-RCC
Description: SANGER: Inhibition of human LB1047-RCC cell growth in a cell viability assay.

U-118-MG = assay: cells; format: functional, cell-based, Homo sapiens; details: Homo sapiens, U-118-MG
Description: SANGER: Inhibition of human U-118-MG cell growth in a cell viability assay.

NCI-H1573 = assay: cells; format: functional, cell-based, Homo sapiens; details: Homo sapiens, NCI-H1573;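 note: growth inhibition of NCI-H1573 cells, read out with a cell viability assay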
Description: SANGER: Inhibition of human NCI-H1573 cell growth in a cell viability assay.

KURAMOCHI = assay: cells; format: functional, cell-based, Homo sapiens; details: Homo sapiens, KURAMOCHI;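 note: growth inhibition of KURAMOCHI cells, read out with a cell viability assay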
Description: SANGER: Inhibition of human KURAMOCHI cell growth in a cell viability assay.

NCI-H1650 = assay: cells; format: functional, cell-based, Homo sapiens; details: Homo sapiens, NCI-H1650;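 note: growth inhibition of human NCI-H1650 cells measured by a cell viability assay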
Description: SANGER: Inhibition of human NCI-H1650 cell growth in a cell viability assay.

NCI-H1155 = assay: cells; format: functional, cell-based, Homo sapiens; details: Homo sapiens, NCI-H1155
Description: SANGER: Inhibition of human NCI-H1155 cell growth in a cell viability assay.

5637 = assay: cells; format: functional, cell-based, Homo sapiens; details: Homo sapiens
Description: SANGER: Inhibition of human 5637 cell growth in a cell viability assay.

HD-MY-Z = assay: cells; format: functional, cell-based, Homo sapiens; details: Homo sapiens, HD-MY-Z;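 note: growth inhibition of HD-MY-Z cells, read out with a cell viability assay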
Description: SANGER: Inhibition of human HD-MY-Z cell growth in a cell viability assay.

A101D = assay: cells; format: functional, cell-based, Homo sapiens; details: Homo sapiens, A101D;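 note: growth inhibition of the cell line, measured with a viability assay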
Description: SANGER: Inhibition of human A101D cell growth in a cell viability assay.

NCI-H522 = assay: cells; format: functional, cell-based, Homo sapiens; details: Homo sapiens, NCI-H522;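 note: cell viability assay measuring growth inhibition of human NCI-H522 cells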
Description: SANGER: Inhibition of human NCI-H522 cell growth in a cell viability assay.

GP5d = assay: cells; format: functional, cell-based, Homo sapiens; details: Homo sapiens, GP5d;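 note: growth inhibition of human GP5d cells, read out with a cell viability assay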
Description: SANGER: Inhibition of human GP5d cell growth in a cell viability assay.

Ca9-22 = assay: cells; format: functional, cell-based, Homo sapiens; details: Homo sapiens, Ca9-22;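 note: growth inhibition of Ca9-22 cells, read out with a cell viability assay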
Description: SANGER: Inhibition of human Ca9-22 cell growth in a cell viability assay.

S-117 = assay: cells; format: functional, cell-based, Homo sapiens; details: Homo sapiens, S-117
Description: SANGER: Inhibition of human S-117 cell growth in a cell viability assay.

DU-4475 = assay: cells; format: functional, cell-based, Homo sapiens; details: Homo sapiens, DU-4475
Description: SANGER: Inhibition of human DU-4475 cell growth in a cell viability assay.

NCI-H1355 = assay: cells; format: functional, cell-based, Homo sapiens; details: Homo sapiens, NCI-H1355;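 note: growth inhibition of human NCI-H1355 cells, read out by a cell viability assay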
Description: SANGER: Inhibition of human NCI-H1355 cell growth in a cell viability assay.

NCI-H82 = assay: cells; format: functional, cell-based, Homo sapiens; details: Homo sapiens, NCI-H82;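 note: growth inhibition of NCI-H82 cells, measured with a cell viability readout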
Description: SANGER: Inhibition of human NCI-H82 cell growth in a cell viability assay.

LN-405 = assay: cells; format: functional, cell-based, Homo sapiens; details: Homo sapiens, LN-405
Description: SANGER: Inhibition of human LN-405 cell growth in a cell viability assay.

EGI-1 = assay: cells; format: functional, cell-based, Homo sapiens; details: Homo sapiens, EGI-1;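 note: cell viability readout used to gauge growth inhibition of EGI-1 cells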
Description: SANGER: Inhibition of human EGI-1 cell growth in a cell viability assay.

AGS = assay: cells; format: functional, cell-based, Homo sapiens; details: Homo sapiens, AGS;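 note: growth inhibition of AGS cells, determined with a cell viability assay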
Description: SANGER: Inhibition of human AGS cell growth in a cell viability assay.

ChaGo-K-1 = assay: cells; format: functional, cell-based, Homo sapiens; details: Homo sapiens, ChaGo-K-1;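 note: growth inhibition of ChaGo-K-1 cells, read out with a cell viability assay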
Description: SANGER: Inhibition of human ChaGo-K-1 cell growth in a cell viability assay.

NCI-H1623 = assay: cells; format: functional, cell-based, Homo sapiens; details: Homo sapiens, NCI-H1623;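 note: cell viability assay used as the read-out for growth inhibition of NCI-H1623 cells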
Description: SANGER: Inhibition of human NCI-H1623 cell growth in a cell viability assay.

NCI-H1770 = assay: cells; format: functional, cell-based, Homo sapiens; details: Homo sapiens, NCI-H1770;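 note: growth inhibition of NCI-H1770 cells determined with a viability readout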
Description: SANGER: Inhibition of human NCI-H1770 cell growth in a cell viability assay.

GI-ME-N = assay: cells; format: functional, cell-based, Homo sapiens; details: Homo sapiens, GI-ME-N;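 note: growth inhibition of human GI-ME-N cells, read out with a cell viability assay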
Description: SANGER: Inhibition of human GI-ME-N cell growth in a cell viability assay.

MKN-7 = assay: cells; format: functional, cell-based, Homo sapiens; details: Homo sapiens, MKN-7;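 note: growth inhibition of MKN-7 cells, read out with a cell viability assay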
Description: SANGER: Inhibition of human MKN7 cell growth in a cell viability assay.

NOS-1 = assay: cells; format: functional, cell-based, Homo sapiens; details: Homo sapiens, NOS-1;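 note: growth inhibition of the human NOS-1 cell line, read out with a cell viability assay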
Description: SANGER: Inhibition of human NOS-1 cell growth in a cell viability assay.

BB49-HNC = assay: cells; format: functional, cell-based, Homo sapiens; details: Homo sapiens, BB49-HNC;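 note: cell viability assay read-out, reported as inhibition of BB49-HNC cell growth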
Description: SANGER: Inhibition of human BB49-HNC cell growth in a cell viability assay.

RS4-11 = assay: cells; format: functional, cell-based, Homo sapiens; details: Homo sapiens, RS4-11;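 note: growth inhibition of RS4-11 cells, read out by a cell viability assay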
Description: SANGER: Inhibition of human RS4-11 cell growth in a cell viability assay.

BHY = assay: cells; format: functional, cell-based, Homo sapiens; details: Homo sapiens, BHY;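 note: cell growth inhibition read out by a viability assay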
Description: SANGER: Inhibition of human BHY cell growth in a cell viability assay.

NY = assay: cells; format: functional, cell-based, Homo sapiens; details: Homo sapiens, NY
Description: SANGER: Inhibition of human NY cell growth in a cell viability assay.

BEN = assay: cells; format: functional, cell-based, Homo sapiens; details: Homo sapiens, BEN;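 note: growth inhibition of the BEN cell line, read out with a cell viability assay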
Description: SANGER: Inhibition of human BEN cell growth in a cell viability assay.

CAPAN-1 = assay: cells; format: functional, cell-based, Homo sapiens; details: Homo sapiens, CAPAN-1;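 note: growth suppression of CAPAN-1 cells, read out by a cell viability assay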
Description: SANGER: Inhibition of human CAPAN-1 cell growth in a cell viability assay.

WM-115 = assay: cells; format: functional, cell-based, Homo sapiens; details: Homo sapiens, WM-115
Description: SANGER: Inhibition of human WM-115 cell growth in a cell viability assay.

NCI-H69 = assay: cells; format: functional, cell-based, Homo sapiens; details: Homo sapiens, NCI-H69;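 note: growth inhibition of the cell line, read out with a cell viability assay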
Description: SANGER: Inhibition of human NCI-H69 cell growth in a cell viability assay.

A-375 = assay: cells; format: functional, cell-based, Homo sapiens; details: Homo sapiens, A-375;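 note: growth inhibition of A375 cells, read out with a cell viability assay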
Description: SANGER: Inhibition of human A375 cell growth in a cell viability assay.

WSU-NHL = assay: cells; format: functional, cell-based, Homo sapiens; details: Homo sapiens, WSU-NHL;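 note: growth inhibition of human WSU-NHL cells, read out with a cell viability assay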
Description: SANGER: Inhibition of human WSU-NHL cell growth in a cell viability assay.

NCI-H719 = assay: cells; format: functional, cell-based, Homo sapiens; details: Homo sapiens, NCI-H719;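 note: growth inhibition of the cultured cell line, read out with a viability assay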
Description: SANGER: Inhibition of human NCI-H719 cell growth in a cell viability assay.

NCI-H2141 = assay: cells; format: functional, cell-based, Homo sapiens; details: Homo sapiens, NCI-H2141;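 note: growth inhibition of human NCI-H2141 cells, read out with a cell viability assay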
Description: SANGER: Inhibition of human NCI-H2141 cell growth in a cell viability assay.

BL-70 = assay: SANGER: Inhibition of human BL-70 cell growth in a cell viability assay.; format: functional, cell-based; details: Homo sapiens, BL-70
LB647-SCLC = assay: cells; format: functional, cell-based, Homo sapiens; details: Homo sapiens, LB647-SCLC;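 note: cell growth inhibition, read out by a viability assay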
Description: SANGER: Inhibition of human LB647-SCLC cell growth in a cell viability assay.

EVSA-T = assay: cells; format: functional, cell-based, Homo sapiens; details: Homo sapiens, EVSA-T;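 note: growth inhibition of EVSA-T cells, read out with a cell viability assay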
Description: SANGER: Inhibition of human EVSA-T cell growth in a cell viability assay.

EB-3 = assay: cells; format: functional, cell-based, Homo sapiens; details: Homo sapiens, EB-3;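 note: human EB-3 cells, growth inhibition read out via a cell viability assay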
Description: SANGER: Inhibition of human EB-3 cell growth in a cell viability assay.

Measured: IC50

Cn1cnc2c(F)c(Nc3ccc(Br)cc3Cl)c(C(=O)NOCCO)cc21 [SELUMETINIB]
2380 nM: Ca9-22
2830 nM: LAN-6
1810 nM: BHY
353 nM: NCI-H1437
1120 nM: AGS
1830 nM: EGI-1
531 nM: COLO-741
33.7 nM: DU-4475
268 nM: WM-115
3130 nM: COR-L105
240 nM: A101D
not listed: A-375 | WSU-NHL | NCI-H719 | NCI-H2141 | BL-70 | LB647-SCLC | EVSA-T | EB-3
> 4000 nM: all other assays above

Nc1ccn([C@@H]2O[C@H](CO)[C@@H](O)C2(F)F)c(=O)n1 [GEMCITABINE]
28.7 nM: GP5d
6.68 nM: HD-MY-Z
25.4 nM: NCI-H1650
488 nM: NCI-H1155
120 nM: COLO-741
373 nM: NCI-H82
9.37 nM: A101D
29.4 nM: COR-L105
696 nM: ChaGo-K-1
32.4 nM: NOS-1
892 nM: NCI-H719
50.3 nM: WSU-NHL
< 4 nM: A-375 | LB1047-RCC | NCI-H1355 | AGS | RS4-11
9.42 nM: NCI-H1437
15.4 nM: Panc1005
238 nM: BEN
214 nM: EGI-1
4.34 nM: NCI-H522
459 nM: NCI-H69
187 nM: NCI-H1623
1.14 nM: BHY
644 nM: NCI-H2141
55 nM: NCI-H1770
111 nM: BL-70
9.23 nM: CAPAN-1
30.2 nM: NY
1.18 nM: LB647-SCLC
3.14 nM: DU-4475
1.54 nM: Ca9-22
> 1020 nM: all other assays above

C=C(c1ccc(C(=O)O)cc1)c1cc2c(cc1C)C(C)(C)CCC2(C)C [BEXAROTENE]
6920 nM: NOS-1
> 8000 nM: all other assays above
